# Measurements taken from PMC6514812, “[^18F]Fluoroethyltriazolyl Monocyclam Derivatives as Imaging Probes for the Chemokine Receptor CXCR4” (Molecules, 2019).
# Like-named read-outs stand apart in the source and are kept apart here. Non-standard residues stand in square brackets, D forms with d. Residues, ends and D or L forms follow the SMILES beside them. Groups on a side chain read outwards from the residue. *: point of attachment. DOTA = O=C(O)CN1CCN(CC(=O)O)CCN(CC(=O)*)CCN(CC(=O)O)CC1; 2Nal = N[C@@H](Cc1ccc2ccccc2c1)C(=O)O; dNMeOrn = CN[C@H](CCCN)C(=O)O; 4Amb = NCc1ccc(C(=O)O)cc1
# Legend:
# [1] = Biodistribution in mice bearing bilateral PC3-WT/PC3-CXCR4 xenograft tumors; type: in vivo, BALB/c mice; settings: male, BALB/c athymic nude, mouse, iv, total radioactivity; for tissue to tissue ratio at 2 h: 2 h p.i.
# Procedure: (§1) All animal studies were approved by the Institutional Animal Care and Use Committee of Weill Cornell Medicine (Protocol Number: 2015-0066) and were undertaken in accordance with the guidelines set forth by the USPHS Policy on Humane Care and Use of Laboratory Animals. Animals were housed under standard conditions in approved facilities with 12 h light/dark cycles. Food and water was provided ad libitum throughout the course of the studies. Hairless 6-to-8-week old male BALB/c inbred athymic nude mice (Jackson Laboratory, Bar Harbor, ME, USA) were inoculated bilaterally with 0.2 mL of a 1:1 mixture of 10^7 PC3-CXCR4 cells in PBS and Matrigel (Corning, Tewksbury, MA, USA) subcutaneously in the left shoulder and 0.2 mL of a 1:1 mixture of 10^7 PC3-WT cells in PBS and Matrigel subcutaneously in the right shoulder. Imaging and biodistribution studies were performed three weeks post-implantation, when tumors were approximately 100–300 mm^3.
# (§2) For the biodistribution studies, tumor-bearing animals (n = 5/compound/time point) were injected intravenously with 50–100 μL of a 9% v/v EtOH/saline solution containing approximately 1.1 MBq of the radioligand. […] The mice were euthanized at 1 or 2 h p.i. and tissues including blood, heart, lungs, liver, small intestine, large intestine, stomach (with contents), spleen, pancreas, kidneys, muscle, bone, PC3-WT tumors, PC3-CXCR4 tumors, and tail were collected. All organs were weighed and placed in test tubes for counting in a Wizard^2 Gamma Counter (PerkinElmer, Waltham, MA, USA). For comparison, 1% injected activity standards were prepared and counted along with the tissue samples. The tails were counted to correct for any dose extravasation. Activity in each tissue was corrected for decay and for injected activity and expressed as percent injected dose per gram of tissue (%ID/g) ± standard error.
# [2] = system: PC3-CXCR4 xenograft tumors; experiment: as above; type: in vivo, BALB/c mice; settings: 2 h p.i.
# Procedure: as §1, §2
# CXCR4 = molecular target: T1, CXCR4 (Homo sapiens, UniProt P61073); experiment: Competition binding assay vs [^68Ga]Pentixafor in PC3-CXCR4 cells; settings: vs [^68Ga]Pentixafor, value ± SD
# T1 construct: expressed in transfected cells; host or cells: PC3 (human prostate cancer) cells stably transduced with CXCR4
# Procedure: PC3-CXCR4 cells were plated in 12-well plates at a density of 500,000 cells per well and incubated for 48 h at 37 °C/5% CO2. Prior to the binding assay the cells were incubated in fresh media and 370–555 kBq of [^68Ga]Pentixafor or [^18F]RPS-544 was added to each well. The corresponding concentration of [^68Ga]Pentixafor in each well was 100 nM, and the concentration of [^18F]RPS-544 was approximately 5 pM. Then non-radioactive ligands were added to give a final ligand concentration in the range 0.001–10,000 nM. A total of eight concentrations were studied, and each concentration was tested in triplicate. The cells were incubated for 60 min at 37 °C/5% CO2. The media was removed under suction, the cells were washed with cold PBS 1X and detached and transferred to tubes for counting in 1 M NaOH. The cells were counted in a Wizard^2 Gamma Counter (PerkinElmer, Waltham, MA, USA). Non-specific binding was subtracted, and the IC50 values were determined by assuming a simple competitive binding interaction and fitting the data to a sigmoidal Hill plot in Origin 9.0 (OriginLab, Northampton, MA, USA). Potencies are expressed as IC50 ± standard deviation (Supplemental Data, Figure S7).
# T1 sequence (P61073 whole entry): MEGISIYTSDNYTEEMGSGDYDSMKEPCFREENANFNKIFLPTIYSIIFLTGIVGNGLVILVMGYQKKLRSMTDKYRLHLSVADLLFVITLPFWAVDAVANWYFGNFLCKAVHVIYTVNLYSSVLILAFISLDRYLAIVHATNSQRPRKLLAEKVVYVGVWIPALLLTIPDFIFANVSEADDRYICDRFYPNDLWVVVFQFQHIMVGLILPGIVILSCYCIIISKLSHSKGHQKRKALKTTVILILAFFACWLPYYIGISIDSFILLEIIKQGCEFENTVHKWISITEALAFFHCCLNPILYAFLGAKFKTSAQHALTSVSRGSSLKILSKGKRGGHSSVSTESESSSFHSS
"tissue to tissue ratio at 1 h ([1]; PC3-CXCR4 tumor and PC3-WT tumor, 1 h p.i., read-out: PC3-CXCR4 Tumor-to-Tissue Ratio PC3-WT)","tissue to tissue ratio at 2 h ([1]; PC3-CXCR4 tumor and PC3-WT tumor, read-out: PC3-CXCR4 Tumor-to-Tissue Ratio PC3-WT)","tissue to tissue ratio at 1 h ([1]; PC3-CXCR4 tumor and blood, 1 h p.i., read-out: PC3-CXCR4 Tumor-to-Tissue Ratio Blood)","tissue to tissue ratio at 2 h ([1]; PC3-CXCR4 tumor and blood, read-out: PC3-CXCR4 Tumor-to-Tissue Ratio Blood)","tissue to tissue ratio at 1 h ([1]; PC3-CXCR4 tumor and bone, 1 h p.i., read-out: PC3-CXCR4 Tumor-to-Tissue Ratio Bone)","tissue to tissue ratio at 2 h ([1]; PC3-CXCR4 tumor and bone, read-out: PC3-CXCR4 Tumor-to-Tissue Ratio Bone)","tissue to tissue ratio at 1 h ([1]; PC3-CXCR4 tumor and kidneys, 1 h p.i., read-out: PC3-CXCR4 Tumor-to-Tissue Ratio Kidneys)","tissue to tissue ratio at 2 h ([1]; PC3-CXCR4 tumor and kidneys, read-out: PC3-CXCR4 Tumor-to-Tissue Ratio Kidneys)","tissue to tissue ratio at 1 h ([1]; PC3-CXCR4 tumor and liver, 1 h p.i., read-out: PC3-CXCR4 Tumor-to-Tissue Ratio Liver)","tissue to tissue ratio at 2 h ([1]; PC3-CXCR4 tumor and liver, read-out: PC3-CXCR4 Tumor-to-Tissue Ratio Liver)","tissue to tissue ratio at 1 h ([1]; PC3-CXCR4 tumor and lungs, 1 h p.i., read-out: PC3-CXCR4 Tumor-to-Tissue Ratio Lungs)","tissue to tissue ratio at 2 h ([1]; PC3-CXCR4 tumor and lungs, read-out: PC3-CXCR4 Tumor-to-Tissue Ratio Lungs)","tissue to tissue ratio at 1 h ([1]; PC3-CXCR4 tumor and muscle, 1 h p.i., read-out: PC3-CXCR4 Tumor-to-Tissue Ratio Muscle)","tissue to tissue ratio at 2 h ([1]; PC3-CXCR4 tumor and muscle, read-out: PC3-CXCR4 Tumor-to-Tissue Ratio Muscle)","tissue uptake at 1 h ([1]; PC3-CXCR4 tumor, 1 h p.i., read-out: Maximum PC3-CXCR4 tumor activity) [%ID/g]",PC3-CXCR4 Tumor-to-Tissue Ratio Blood [2],PC3-CXCR4 ratio to all normal tissue except kidneys [2],"Hill Slope, Competitive Binding Experiment (CXCR4)",SMILES
2 ± 0.2,2.8 ± 0.1,11.4 ± 0.2,31.1 ± 0.1,28.7 ± 0.2,47.2 ± 0.1,4 ± 0.2,5.3 ± 0.1,10.8 ± 0.2,10.8 ± 0.1,11.8 ± 0.2,17.1 ± 0.1,56.1 ± 0.2,101.2 ± 0.1,14.6 ± 2.7,32.1 ± 0.1,greater than 10,,"CN1C(=O)[C@@H](Cc2ccc(O)cc2)NC(=O)CNC(=O)[C@H](Cc2ccc3ccccc3c2)NC(=O)[C@H](CCCNC(=N)N)NC(=O)[C@H]1CCCNC(=O)c1ccc(CNC(=O)CN2CCN(CC(=O)O)CCN(CC(=O)O)CCN(CC(=O)O)CC2)cc1 (68Ga complex, metal not drawn) [Pentixafor, reference compound] (cyclo([dY][dNMeOrn]([4Amb-DOTA])R[2Nal]G))"
,,,,,,,,,,,,,,,,,1.01 ± 0.30,"c1ccc(CNCc2ccc(CN3CCCNCCNCCCNCC3)cc2)nc1 [AMD-3465, reference compound]"
